Data taken from patent publication US20130189764A1, “SELECTIVE GROWTH MEDIA” (Oxide Limited, priority 2000, published 2013).
≈ marks a conversion by molar mass, not a printed value.

How the values were obtained:
[1] = tested on: Burkholderia cepacia; assay: MIC on DMSal agar (Example 15); assay type: cell-based; details: 1 strain
[2] = tested on: Acinetobacter baumanii; assay: MIC on DMSal agar (Example 15); assay type: cell-based; details: 1 strain
Procedure: (§1) The experiments were conducted as follows: […], on cooling (but prior to setting) filter-sterilised alaphosphin or AEP were incorporated at final concentrations of 1 mM, 2 mM, 5 mM and 10 mM, and the medium used to pour plates. Control plates were prepared using nutrient agar without alaphosphin or AEP. A single colony of the organism under test was inoculated in 10 ml of nutrient broth and incubated (without agitation) at 37° C. for 4 hours.

[3] = tested on: Aeromonas hydrophilia; assay: MIC on DMSal agar (Example 15); assay type: cell-based; details: 1 strain
Procedure: as §1

[4] = tested on: Campylobacter coli; assay: MIC on DMSal agar (Example 15); assay type: cell-based; details: 4 strains
Procedure: as §1

[5] = tested on: Campylobacter jejuni; assay: MIC on DMSal agar (Example 15); assay type: cell-based; details: 4 strains
Procedure: as §1

[6] = tested on: Citrobacter freundii; assay: MIC on DMSal agar (Example 15); assay type: cell-based; details: 4 strains
Procedure: as §1

[7] = tested on: Cronobacter sakazakii; assay: MIC on DMSal agar (Example 15); assay type: cell-based; details: 1 strain
Procedure: as §1

[8] = tested on: Enterobacter aerogenes; assay: MIC on DMSal agar (Example 15); assay type: cell-based; details: 1 strain
Procedure: as §1

[9] = tested on: Enterobacter cloacae; assay: MIC on DMSal agar (Example 15); assay type: cell-based; details: 2 strains
Procedure: as §1

[10] = tested on: Enterococcus faecium; assay: MIC on DMSal agar (Example 15); assay type: cell-based; details: 1 strain
Procedure: as §1

[11] = tested on: Escherichia coli; assay: MIC on DMSal agar (Example 15); assay type: cell-based; details: 7 strains
Procedure: as §1

[12] = tested on: Escherichia hermanii; assay: MIC on DMSal agar (Example 15); assay type: cell-based; details: 1 strain
Procedure: as §1

[13] = tested on: Group A Streptococcus; assay: MIC on DMSal agar (Example 15); assay type: cell-based; details: 7 strains
Procedure: as §1

[14] = tested on: Group D Streptococcus; assay: MIC on DMSal agar (Example 15); assay type: cell-based; details: 2 strains
Procedure: as §1

[15] = tested on: Group F Streptococcus; assay: MIC on DMSal agar (Example 15); assay type: cell-based; details: 2 strains
Procedure: as §1

[16] = tested on: Hafnia alvei; assay: MIC on DMSal agar (Example 15); assay type: cell-based; details: 1 strain
Procedure: as §1

[17] = tested on: Klebsiella aerogenes; assay: MIC on DMSal agar (Example 15); assay type: cell-based; details: 1 strain
Procedure: as §1

[18] = tested on: Klebsiella pneumoniae; assay: MIC on DMSal agar (Example 15); assay type: cell-based; details: 2 strains
Procedure: as §1

[19] = tested on: Listeria innocua; assay: MIC on DMSal agar (Example 15); assay type: cell-based; details: 1 strain
Procedure: as §1

[20] = tested on: Listeria ivanovii; assay: MIC on DMSal agar (Example 15); assay type: cell-based; details: 1 strain
Procedure: as §1

[21] = tested on: Proteus mirabilis; assay: MIC on DMSal agar (Example 15); assay type: cell-based; details: 1 strain
Procedure: as §1

[22] = tested on: Proteus vulgaris; assay: MIC on DMSal agar (Example 15); assay type: cell-based; details: 1 strain
Procedure: as §1

[23] = tested on: Serratia marcescans; assay: MIC on DMSal agar (Example 15); assay type: cell-based; details: 1 strain
Procedure: as §1

[24] = tested on: Shigella; assay: MIC on DMSal agar (Example 15); assay type: cell-based; details: 3 strains
Procedure: as §1

[25] = tested on: Staphylococcus aureus; assay: MIC on DMSal agar (Example 15); assay type: cell-based; details: 14 strains
Procedure: as §1

[26] = tested on: Staphylococcus epidermidis; assay: MIC on DMSal agar (Example 15); assay type: cell-based; details: 3 strains
Procedure: as §1

[27] = tested on: Staphylococcus haemolyticus; assay: MIC on DMSal agar (Example 15); assay type: cell-based; details: 1 strain
Procedure: as §1

[28] = tested on: Staphylococcus saprophyticus; assay: MIC on DMSal agar (Example 15); assay type: cell-based; details: 1 strain
Procedure: as §1

[29] = tested on: Streptoccocus viridans; assay: MIC on DMSal agar (Example 15); assay type: cell-based; details: 1 strain
Procedure: as §1

[30] = tested on: Streptococcus agalactiae; assay: MIC on DMSal agar (Example 15); assay type: cell-based; details: 5 strains
Procedure: as §1

[31] = tested on: Haemophilus influenzae; assay: MIC on DMSal agar (Example 15); assay type: cell-based; details: 5 strains
[32] = tested on: Salmonella; details: 16 strains, DMSal agar
Procedure: (§2) The experiments were conducted as follows: nutrient agar medium was autoclaved and, on cooling (but prior to setting) filter-sterilised alaphosphin or AEP were incorporated at final concentrations of 1 mM, 2 mM, 5 mM and 10 mM, and the medium used to pour plates. Control plates were prepared using nutrient agar without alaphosphin or AEP. A single colony of the organism under test was inoculated in 10 ml of nutrient broth and incubated (without agitation) at 37° C. for 4 hours.

[33] = tested on: Yersinia enterocolitica; assay: MIC on DMSal agar (Example 15); assay type: cell-based; details: 2 strains
[34] = tested on: Streptococcus pneumonaie; assay: MIC on DMSal agar (Example 15); assay type: cell-based; details: 5 strains
[35] = tested on: E. coli strains; assay: inhibition of E. coli strains on DMSal agar for selective growth of Salmonella (Example 16); assay type: cell-based, Escherichia coli; details: added to DMSal, selective growth of Salmonella strains
Procedure: as §2
(§3) Trp-AEP was compared to alaphosphin (Ala-AEP) for selective growth of Salmonella strains on DMSal agar.

[36] = tested on: Cronobacterr sakazakii 1888; assay: MIC / growth in DMSal (Example 16); assay type: cell-based, Cronobacter sakazakii; details: Cronobacterr sakazakii 1888, DMSal
Procedure: as §2, §3

[37] = tested on: Citrobacter freundii 370; assay: MIC / growth in DMSal (Example 16); assay type: cell-based; details: Citrobacter freundii 370, DMSal
Procedure: as §2, §3

[38] = tested on: Escherichia coli 122; assay: MIC / growth in DMSal (Example 16); assay type: cell-based; details: Escherichia coli 122, DMSal
Procedure: as §2, §3

[39] = tested on: Escherichia coli 199; assay: MIC / growth in DMSal (Example 16); assay type: cell-based; details: Escherichia coli 199, DMSal
Procedure: as §2, §3

[40] = tested on: Escherichia coli 481; assay: MIC / growth in DMSal (Example 16); assay type: cell-based; details: Escherichia coli 481, DMSal
Procedure: as §2, §3

[41] = tested on: Klebsiella aerogenes 323; assay: MIC / growth in DMSal (Example 16); assay type: cell-based; details: Klebsiella aerogenes 323, DMSal
Procedure: as §2, §3

[42] = tested on: Klebsiella pneumoniae 411; assay: MIC / growth in DMSal (Example 16); assay type: cell-based; details: Klebsiella pneumoniae 411, DMSal
Procedure: as §2, §3

[43] = tested on: Klebsiella pneumoniae 758; assay: MIC / growth in DMSal (Example 16); assay type: cell-based; details: Klebsiella pneumoniae 758, DMSal
Procedure: as §2, §3

[44] = tested on: Salmonella arizonae 1200; assay: MIC / growth in DMSal (Example 16); assay type: cell-based; details: Salmonella arizonae 1200, DMSal
Procedure: as §2, §3

[45] = tested on: Salmonella enteriditis 723; assay: MIC / growth in DMSal (Example 16); assay type: cell-based; details: Salmonella enteriditis 723, DMSal
Procedure: as §2, §3

[46] = tested on: Salmonella typhimurium 722; assay: MIC / growth in DMSal (Example 16); assay type: cell-based; details: Salmonella typhimurium 722, DMSal
Procedure: as §2, §3

[47] = tested on: Salmonella virchow 703; assay: MIC / growth in DMSal (Example 16); assay type: cell-based; details: Salmonella virchow 703, DMSal
Procedure: as §2, §3

[48] = tested on: Serratia marcescens 217; assay: MIC / growth in DMSal (Example 16); assay type: cell-based; details: Serratia marcescens 217, DMSal
Procedure: as §2, §3

CC(NC(=O)C(N)Cc1c[nH]c2ccccc12)P(=O)(O)O (stereo not shown) [Trp-AEP, tryptophan-AEP]
MIC [1]: >256 µg/mL
MIC [2]: >256 µg/mL
MIC [3]: 128 µg/mL (≈ 411 µM)
MIC [4]: >128 µg/mL
MIC [5]: >128 µg/mL
MIC [6]: approximately 1 μg/ml
MIC ([6]; listed as tryptophan-AEP): 1 to 4 µg/mL
MIC [7]: approximately 1 μg/ml
MIC ([7]; listed as tryptophan-AEP): 1 µg/mL (≈ 3.21 µM)
MIC [8]: 1 µg/mL (≈ 3.21 µM)
MIC [9]: 4 µg/mL (≈ 12.9 µM)
MIC [10]: >256 µg/mL
MIC [11]: ≤ 0.5 µg/mL
MIC ([11]; listed as tryptophan-AEP): 0.25 to 0.5 µg/mL
MIC [12]: 0.5 µg/mL (≈ 1.61 µM)
MIC [13]: >256 µg/mL
MIC [14]: 16 µg/mL (≈ 51.4 µM)
MIC [15]: >256 µg/mL
MIC [16]: approximately 1 μg/ml
MIC ([16]; listed as tryptophan-AEP): 1 µg/mL (≈ 3.21 µM)
MIC [17]: 8 µg/mL (≈ 25.7 µM)
MIC [18]: 2 to 4 µg/mL
MIC [19]: 32 µg/mL (≈ 103 µM)
MIC [20]: >128 µg/mL
MIC [21]: >128 µg/mL
MIC [22]: >128 µg/mL
MIC [23]: 2 µg/mL (≈ 6.43 µM)
MIC [24]: ≤ 0.5 µg/mL
MIC [25]: 0.5 to 16 µg/mL
MIC [26]: 4 to 16 µg/mL
MIC [27]: 2 µg/mL (≈ 6.43 µM)
MIC [28]: 64 µg/mL (≈ 206 µM)
MIC [29]: >256 µg/mL
MIC [30]: 128 µg/mL (≈ 411 µM)
MIC [31]: >128 µg/mL
MIC [32]: 2 to 16 µg/mL
MIC [33]: 4 to 8 µg/mL
MIC [34]: >256 µg/mL
concentration producing equivalent results to Ala-AEP at 1.5 μg/ml [35]: 0.25 µg/mL
MIC of Trp-AEP [36]: 0.125 µg/mL
MIC of Trp-AEP [37]: 2 µg/mL
MIC of Trp-AEP [38]: 0.25 µg/mL
MIC of Trp-AEP [39]: 0.25 µg/mL
MIC of Trp-AEP [40]: 0.064 µg/mL
MIC of Trp-AEP [41]: 3 µg/mL
MIC of Trp-AEP [42]: 2 µg/mL
MIC of Trp-AEP [43]: 0.064 µg/mL
MIC of Trp-AEP [44]: 2 µg/mL
MIC of Trp-AEP [45]: 3 µg/mL
MIC of Trp-AEP [46]: 3 µg/mL
MIC of Trp-AEP [47]: 3 µg/mL
MIC of Trp-AEP [48]: 3 µg/mL
